This is an account of results in ChEMBL document CHEMBL5365457, “Selective HDAC3 Inhibitors with Potent In Vivo Antitumor Efficacy against Triple-Negative Breast Cancer” (J Med Chem, 2023).

Calls of active or inactive are those of the source. No cut-off for these calls is given here.

For orientation: IC50 means the concentration that inhibits the measured activity by half.

Assay [1] deals with 4T1. The assay is described as follows: Antitumor activity against mouse 4T1 cells implanted in BALB/c mouse assessed as reduction in tumor weight at 5 mg/kg, ip administered 5 times a week for 21 days. The class given is functional. Conditions: time 21 day.
For the next assay, the target named is Histone deacetylase 5 (Homo sapiens, UniProt Q9UQL6). The assay is described as follows: Inhibition of recombinant HDAC5 (unknown origin) incubated for 30 mins by fluorescence based microplate analysis.
Sequence of Histone deacetylase 5 (Q9UQL6 whole entry): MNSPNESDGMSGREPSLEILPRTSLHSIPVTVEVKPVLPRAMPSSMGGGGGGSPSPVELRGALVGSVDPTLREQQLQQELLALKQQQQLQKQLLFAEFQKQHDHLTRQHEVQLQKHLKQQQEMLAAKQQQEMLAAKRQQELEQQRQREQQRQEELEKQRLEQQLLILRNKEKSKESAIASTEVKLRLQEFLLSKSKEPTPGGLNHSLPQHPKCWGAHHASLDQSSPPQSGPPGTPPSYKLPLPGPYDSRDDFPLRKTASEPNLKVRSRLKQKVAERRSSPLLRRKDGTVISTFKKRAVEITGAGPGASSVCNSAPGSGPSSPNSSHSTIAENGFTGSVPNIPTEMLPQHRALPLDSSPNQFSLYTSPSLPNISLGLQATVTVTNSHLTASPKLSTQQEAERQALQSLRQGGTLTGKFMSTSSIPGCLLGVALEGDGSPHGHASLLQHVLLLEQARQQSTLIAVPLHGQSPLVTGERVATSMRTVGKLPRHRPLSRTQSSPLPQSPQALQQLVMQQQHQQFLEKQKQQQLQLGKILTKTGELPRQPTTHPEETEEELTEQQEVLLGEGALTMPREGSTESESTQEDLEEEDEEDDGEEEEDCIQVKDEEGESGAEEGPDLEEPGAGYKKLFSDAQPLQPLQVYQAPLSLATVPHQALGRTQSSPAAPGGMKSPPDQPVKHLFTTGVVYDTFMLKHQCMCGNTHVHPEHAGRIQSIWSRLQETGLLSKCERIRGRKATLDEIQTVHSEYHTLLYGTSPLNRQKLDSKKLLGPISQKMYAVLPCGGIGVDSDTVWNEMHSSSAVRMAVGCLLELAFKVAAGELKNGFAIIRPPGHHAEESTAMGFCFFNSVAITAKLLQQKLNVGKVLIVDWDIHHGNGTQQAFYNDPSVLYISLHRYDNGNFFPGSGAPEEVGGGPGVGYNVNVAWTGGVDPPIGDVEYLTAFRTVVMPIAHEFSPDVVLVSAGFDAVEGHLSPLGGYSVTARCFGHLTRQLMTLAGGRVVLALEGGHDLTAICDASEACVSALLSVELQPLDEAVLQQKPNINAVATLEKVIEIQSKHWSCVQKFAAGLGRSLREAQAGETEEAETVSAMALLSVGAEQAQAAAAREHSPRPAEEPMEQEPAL
Assay [2] concerns 4T1. The assay is described as follows: Induction of apoptosis in mouse 4T1 cells at 550 nM incubated for 72 hrs by annexin/PI staining based flow cytometry analysis (reference value: 1.35%). The class given is functional.
For another assay, the system named is Mus musculus. The assay is described as follows: Induction of ROS generation in mouse implanted with mouse 4T1 cells at 15 mg/kg, ip administered for 21 days by DCFH-DA staining based microscopic analysis. The assay is classed as functional, organism-based. Conditions: time 21.0 day.
The target in assay [3] is T1, Histone deacetylase 3 (Mus musculus) (UniProt O88895).
T1 sequence (whole entry): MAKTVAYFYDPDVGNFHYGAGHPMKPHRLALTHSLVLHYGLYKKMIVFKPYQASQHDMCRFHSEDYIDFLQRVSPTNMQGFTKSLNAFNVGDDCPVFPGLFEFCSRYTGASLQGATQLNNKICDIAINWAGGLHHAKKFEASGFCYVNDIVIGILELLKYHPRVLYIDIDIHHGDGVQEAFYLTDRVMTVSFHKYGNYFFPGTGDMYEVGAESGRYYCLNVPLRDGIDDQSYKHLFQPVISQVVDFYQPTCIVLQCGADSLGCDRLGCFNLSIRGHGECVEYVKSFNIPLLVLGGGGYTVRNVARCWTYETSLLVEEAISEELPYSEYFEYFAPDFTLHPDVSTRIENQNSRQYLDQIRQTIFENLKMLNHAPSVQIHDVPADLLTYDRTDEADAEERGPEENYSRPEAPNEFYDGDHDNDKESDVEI
The experiment in a line: Inhibition of HDAC3 in mouse 4T1 cells assessed as increase in acetylation of H4K12 level at 1 uM incubated for 72 hrs by western blot analysis. The class given is cell-based. (In western blotting, separated proteins are transferred to a membrane and probed.)

Regarding `CCCNNC(=O)c1cnc(NCc2ccc(OC)cc2)cn1`, the Activity is listed as 0.65 g with 4T1 [1] and 63.4% in the assay with 4T1 [2]. The IC50 on Histone deacetylase 5 is over 20 µM. The result in the assay on Mus musculus was Active. Moreover, the inhibition result in assay [3] is “Active”.
